# Changes are numbered by the printed parent chain.
# Assays:
# TRPM3 V990M mutant = biological target: T1, TRPM3 V990M mutant (Homo sapiens, UniProt Q9HCF6, V1015M); test: Whole-cell patch clamp, HEK293T cells expressing V990M hTRPM3; type: cell-based; settings: La3+ 10 µM, PS 40 µM, ±150 mV
# T1 construct: expressed in transfected cells; host or cells: HEK293T
# T1 sequence (Q9HCF6 1-1325 isoform Q9HCF6-10 V990M): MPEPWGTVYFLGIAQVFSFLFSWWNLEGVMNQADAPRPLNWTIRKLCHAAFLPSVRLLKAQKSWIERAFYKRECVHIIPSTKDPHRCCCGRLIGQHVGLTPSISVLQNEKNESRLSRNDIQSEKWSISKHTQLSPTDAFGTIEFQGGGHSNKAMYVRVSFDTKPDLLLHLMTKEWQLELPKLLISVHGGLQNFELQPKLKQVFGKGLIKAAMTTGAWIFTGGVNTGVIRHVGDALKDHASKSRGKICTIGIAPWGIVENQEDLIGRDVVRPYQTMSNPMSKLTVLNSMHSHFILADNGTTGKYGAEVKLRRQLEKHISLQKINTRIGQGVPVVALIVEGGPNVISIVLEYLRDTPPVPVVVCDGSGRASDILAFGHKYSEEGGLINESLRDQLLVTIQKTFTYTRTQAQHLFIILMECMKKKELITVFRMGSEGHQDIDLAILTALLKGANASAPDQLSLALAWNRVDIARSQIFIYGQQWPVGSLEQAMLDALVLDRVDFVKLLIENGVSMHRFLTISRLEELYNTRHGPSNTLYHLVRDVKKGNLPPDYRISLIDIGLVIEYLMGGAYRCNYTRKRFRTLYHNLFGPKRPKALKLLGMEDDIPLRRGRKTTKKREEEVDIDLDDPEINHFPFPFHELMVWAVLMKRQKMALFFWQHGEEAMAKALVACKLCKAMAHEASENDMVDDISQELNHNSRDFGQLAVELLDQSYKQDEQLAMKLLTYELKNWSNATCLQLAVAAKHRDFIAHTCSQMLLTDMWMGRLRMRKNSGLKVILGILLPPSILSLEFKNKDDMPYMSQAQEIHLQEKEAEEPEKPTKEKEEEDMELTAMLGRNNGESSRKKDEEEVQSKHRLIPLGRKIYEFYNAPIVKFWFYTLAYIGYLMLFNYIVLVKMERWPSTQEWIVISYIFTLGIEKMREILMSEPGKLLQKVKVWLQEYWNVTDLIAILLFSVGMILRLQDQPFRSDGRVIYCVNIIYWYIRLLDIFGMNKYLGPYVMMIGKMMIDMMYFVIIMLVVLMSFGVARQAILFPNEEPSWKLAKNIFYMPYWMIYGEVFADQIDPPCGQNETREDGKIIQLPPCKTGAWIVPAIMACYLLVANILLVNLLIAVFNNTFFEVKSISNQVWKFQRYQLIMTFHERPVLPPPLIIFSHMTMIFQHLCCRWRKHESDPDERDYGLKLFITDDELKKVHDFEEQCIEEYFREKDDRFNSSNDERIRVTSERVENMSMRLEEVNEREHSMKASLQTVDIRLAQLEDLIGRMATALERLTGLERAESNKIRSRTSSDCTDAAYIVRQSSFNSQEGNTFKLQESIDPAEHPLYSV
# Description: (§1) HEK293T cells ([Graham et al., 1977]) were cultured as described previously ([Vriens et al., 2007]) and used up in passage number 14. HEK293T cells were tested for the lack of mycoplasma and transiently transfected with 2 µg of DNA using TransIT transfection reagent (Mirus) 36–48 hr before the measurements. In case of co-cultures a ratio of 1:1 between hTRPM3-YFP WT and mutants-YFP DNA was used.
# All mutants were obtained by the standard PCR overlap extension method using hTRPM3 directly linked to YFP from pCAGGS/IRES-GFP vector ([Vriens et al., 2007]). Accuracy of all mutant sequences was verified by sequencing of the entire DNA constructs.
# (§2) Standard whole-cell patch-clamp recordings were performed with an EPC-10 amplifier and the PatchMasterPro Software (HEKA Elektronik, Lambrecht, Germany). Current measurements were performed at a sampling rate of 20 kHz and currents were digitally filtered at 2.9 kHz. In all measurements, 70% of the series resistance was compensated. The standard internal solution contained (in mM): 100 CsAsp, 45 CsCl, 10 EGTA, 10 HEPES, 1 MgCl2 (pH 7.2 with CsOH) or 140 potassium gluconate, 5 EGTA, 1 MgCl2, 10 HEPES and 2 NaATP (pH 7.3 with CsOH) for the measurements of Gβγ mediated inhibition and the standard extracellular solution contained (in mM): 150 NaCl, 1 MgCl2, 10 HEPES (pH 7.4 with NaOH). The standard patch pipette resistance was between 2 MΩ and 4 MΩ when filled with pipette solution. In experiments allowing Ca^2+-dependent desensitization of TRPM3, Mg^2+ was replaced by Ca^2+ in the extracellular solution, and Cs^+ was replaced by Na^+ in the pipette solution. […] The chemical ligands were dissolved in bath solution from a stock diluted in DMSO.
# WT human TRPM3 = biological target: T2, WT human TRPM3 (Homo sapiens, UniProt Q9HCF6); test: Whole-cell patch clamp, HEK293T cells expressing WT hTRPM3; type: cell-based; settings: cells not co-transfected with the µ-opioid receptor; DAMGO 1 µM, PS 40 µM
# T2 construct: expressed in transfected cells; host or cells: HEK293T
# T2 sequence (Q9HCF6 1-1325 isoform Q9HCF6-10): T1 sequence (Q9HCF6 1-1325 isoform Q9HCF6-10 V990M) with M990V
# Description: as §1, §2
# [1] = system: P1090Q hTRPM3 co-transfected with µ-opioid receptors; test: Whole-cell patch clamp, Gβγ-mediated inhibition of PS-activated currents, cells co-transfected with µ-opioid receptor and P1090Q TRPM3; type: cell-based, human; settings: 1 µM DAMGO, PS 40 µM
# Description: (§3) TRPM3 activity is inhibited upon activation of G protein-coupled receptors, via a mechanism that involves direct binding of the Gβγ of trimeric G-proteins to the channel ([Badheka et al., 2017]; [Dembla et al., 2017]; [Quallo et al., 2017]).
# as §1
# (§4) Standard whole-cell patch-clamp recordings were performed with an EPC-10 amplifier and the PatchMasterPro Software (HEKA Elektronik, Lambrecht, Germany). Current measurements were performed at a sampling rate of 20 kHz and currents were digitally filtered at 2.9 kHz. In all measurements, 70% of the series resistance was compensated. The standard internal solution contained (in mM): 100 CsAsp, 45 CsCl, 10 EGTA, 10 HEPES, 1 MgCl2 (pH 7.2 with CsOH) or 140 potassium gluconate, 5 EGTA, 1 MgCl2, 10 HEPES and 2 NaATP (pH 7.3 with CsOH) for the measurements of Gβγ mediated inhibition and the standard extracellular solution contained (in mM): 150 NaCl, 1 MgCl2, 10 HEPES (pH 7.4 with NaOH). […]
# [2] = system: WT hTRPM3 co-transfected with µ-opioid receptors; test: Whole-cell patch clamp, Gβγ-mediated inhibition of PS-activated currents, cells co-transfected with µ-opioid receptor and WT TRPM3; type: cell-based, human
# Description: as §3, §1, §4
# [3] = system: V990M hTRPM3 co-transfected with µ-opioid receptors; test: Whole-cell patch clamp, Gβγ-mediated inhibition of PS-activated currents, cells co-transfected with µ-opioid receptor and V990M TRPM3; type: cell-based, human
# Description: as §3, §1, §4
# [4] = n = 5, read-out: IC50, DAMGO concentration for half-maximal inhibition of PS-activated currents
Compound,Block of the inward component of the PS-activated current (TRPM3 V990M mutant),Effect on TRPM3 currents (WT human TRPM3),Inhibition of PS-activated inward and outward currents [1],"Inhibition of PS-activated inward and outward currents ([2]; 1 µM DAMGO, PS 40 µM)","IC50 [2, 4] [nM]","Inhibition of PS-activated inward and outward currents ([3]; 1 µM DAMGO, PS 40 µM)","IC50 [3, 4] [nM]"
"[La+3] [La^3+, Lanthanum]",resistant to block,,,,,,
"[D-Ala^2, N-Me-Phe^4, Gly^5-ol]-enkephalin acetate salt [DAMGO]",,without effect,complete and rapidly reversible inhibition,complete and rapidly reversible inhibition,4 ± 0.6,only partly inhibited,40 ± 10
